Data as given in patent EP2077851B1, “A PHARMACEUTICAL COMPOSITION COMPRISING CORDYCEPIN FOR THE TREATMENT AND PREVENTION OF OBESITY” (priority 2006, dated 2008).
Like-named read-outs stand apart in the source and are kept apart here.

Experiments:
[1] = cited from earlier work
[2] = tested on: 3T3-L1 cells; assay: Differentiation of 3T3-L1 fibroblast cells into adipocytes (oil red O staining); assay type: cell-based
Method: Fibroblast cells (3T3-L1 cells) were cultured in 10 cm-culture dishes containing animal cell culture media (refer to Table 2, below) at 37°C in a 5% CO2 incubator, with the media replaced with fresh media every two or three days.
3T3-L1 cell line was purchased from the American Type Culture Collection (ATCC CL-173). The cells were grown and differentiated according to the protocol of Frost and Lane (Frost and Lane, 1985): 3T3-L1 preadipocytes were cultured in 100 mm plates containing a submerged medium for proliferation (DMEM supplemented with 10% BCS, 100 U/ml penicillin, and 100 µg/ml streptomycin) in an atmosphere of 5% CO2 at 37°C. When the cell become confluent, the cells were harvested, splitted in a 6-well plate to a cell number of 4.0×10^5 cells/ml and subsequently cultured until reaching confluence again. Two days after confluence, the cells were stimulated to differentiate into adipocytes by incubating for 2 days in the medium for stimulating differentiation (MSD, DMEM containing 1 µM DEX, 0.5 mM IBMX, and 10 µg/ml insulin), and maintained in the differentiated state in the medium for differentiation (MFD containing 10% BCS and 5 µg/ml insulin) for 7 days. MSD was freshly replaced every 48 hours and the comparison of the each medium composition used in this example was shown in Table 2.
Cordycepin was dissolved in the appropriate warm medium and added at the final concentration of 4, 16, and 32 µM.
Cells obtained in Example 1-1 were washed twice with PBS (pH 7.4), fixed with 10% formalin in PBS for 1 hour at room temperature and washed three times with distilled water. The cells were stained with filtered 0.5% oil red O for 10 min, and washed again with distilled water three times. The pictures of the stained cells were taken using an Olympus (CKX-41, Tokyo, Japan) microscope. The density of stained oil red O was measured using a spectrometer (DU-70, Beckman, Fullerton, CA) at 518 nm after the dye was extracted with propanol. […]

[3] = tested on: 3T3-L1 cells; assay: Triacylglycerol synthesis in 3T3-L1 cells (intracellular triacylglycerol per unit weight of protein); assay type: cell-based
Method: A measurement was made to find the effect of cordycepin on the synthesis of triacylglycerol (TAG). First, the cells in each group were detached using a Tris-EDTA buffer and disrupted with an ultrasonicator. A calibration curve for a standard solution was made according to the protocol of a BCA protein assay kit. The cell lysates were diluted in the kit reagent and warmed at 37°C for 30 min. Then, within 10 min, the solutions were measured for absorbance at 562 nm to quantify protein. Separately, according to the protocol of a BCS triacylglycerol kit, the cell lysates were diluted in the kit reagent and warmed at 37°C for 10 min. Then, within 60 min, the absorbance of the solutions was measured at 550 nm against a reagent blank. The amount of intracellular triacylglycerol per unit weight of protein (µg/mg) was calculated according to a calculation formula.
For the preliminary investigation of the mode of action of cordycepin on differentiation and TAG synthesis, adenosine, one of several cordycepin homologues, was added to the submerged medium for differentiation at the time of initiating differentiation at the same molar concentration as cordycepin (32 µM).

[4] = tested on: C/EBPα; assay: Western blot analysis of protein expression in 3T3-L1 cells; assay type: cell-based; conditions: FIG. 8
Method: (§1) Western blot analysis was performed in order to examine the effect of cordycepin on the expression of C/EBPα, PPARγ, and anti-leptin, the essential factors involved in adipogenesis and lipogenesis.
(§2) 3T3-L1 cells cultured in 6-well dishes were rinsed three times with ice-cold PBS, scraped into 0.5 ml of PBS, and centrifuged at 14,000 rpm for 1 min. Cell pellets were resuspended in 0.2 ml ice-cold RIPA buffer (50 mM Tris-HCl, pH 7.4, 150 mM NaCl, 1 mM EDTA, 1% NP 40, 0.25 % deoxycholate) and protease inhibitors (Complete Mini Protease Inhibitor Tablets, Roche, Indianapolis, IN). Suspensions were sheared through a 20-gauge needle, incubated on ice for 30 min and centrifuged at 14,000 rpm at 4°C for 20 min. Supernatants were collected and the protein concentration was determined using a BCA assay kit. Cell lysates were mixed with an equal volume of Laemmli SDS loading buffer (Bio-Rad Laboratories, Hercules, CA), equal amounts of lysate protein ([…]) were loaded onto SDS-PAGE, and electrophoresis was carried out before the protein was transferred to a nitrocellulose membrane (Bio-Rad Laboratories, Hercules, CA). The membranes were blocked for 1 h in PBS containing 0.05% Tween-20 (USB corp., Cleveland, USA) and 5% nonfat dry milk. The membranes were incubated with antibodies against C/EBPα, PPARγ (Santa Cruz, CA) and anti-leptin (Sigma) for 1 hour, followed by three 10 min washes in PBS/Tween-20. The blots were subsequently treated with appropriate secondary antibodies conjugated to horseradish peroxidase for 1 hour at room temperature, and washed with PBS-T three times for 10 min. To visualize reaction complexes, an enhanced chemiluminescence system (ECL, Amersham International plc, Little Chalfont Buckinghamshire, England) was used, and reaction complexes were exposed to X-ray film.

[5] = tested on: PPARγ; assay: as above; assay type: cell-based; conditions: FIG. 8
Method: as §1, §2

[6] = tested on: anti-leptin; assay: as above; assay type: cell-based; conditions: 32 µM, differentiated 3T3-L1 cells, FIG. 8
Method: as §1, §2

[7] = anti-obesity drugs, background knowledge
[8] = adenosine 32 µM, differentiated 3T3-L1 cells

Compound: NC1=NCC(c2ccccc2)O1 (centres unmarked) [Aminorex]
- Side effect [1, 7]: Pulmonary hypertension caused

Compound: CC(N)Cc1ccccc1 (centres unmarked) [Amphetamine]
- Side effect ([1]; in vivo): Addictive

Compound: CCNC(C)Cc1cccc(C(F)(F)F)c1 (centres unmarked) [Fenfluramine]
- Valvular dysfunction caused in persons administered in combination with other therapy ([1]; share of persons, sale prohibited in 1997): Valvular dysfunction caused in 35% of persons administered in combination with other therapy, sale prohibited in 1997.

Compound: CCCCCCCCCCC[C@@H](C[C@@H]1OC(=O)[C@H]1CCCCCC)OC(=O)[C@H](CC(C)C)NC=O [Orlistat]
- Side effect [1, 7]: Diarrhea, fatty stool, fecal incontinence.

Compound: CC(C)CC(N(C)C)C1(c2ccc(Cl)cc2)CCC1 (centres unmarked) [Sibutramine]
- Side effect [1, 7]: Blood pressure increase, insomnia, xerostomia and vertigo. Prohibited to the patients with cardiovascular disease.

Compound: Nc1ncnc2c1ncn2[C@@H]1O[C@H](CO)[C@@H](O)[C@H]1O [adenosine]
- inhibitory effect of cordycepin on differentiation of 3T3-L1 cells ([2]; adenosine 32 µM added together with cordycepin 32 µM at initiation of differentiation, FIG. 6): suppressed
- inhibitory effect of cordycepin on TAG synthesis of 3T3-L1 cells ([3]; adenosine 32 µM added together with cordycepin 32 µM at initiation of differentiation, FIG. 7): suppressed
- C/EBPα level [4, 8]: inhibited
- expression levels of PPARγ [5, 8]: no significant effect
- expression levels of anti-leptin [6]: no significant effect

Compound: Nc1ncnc2c1ncn2[C@@H]1O[C@H](CO)C[C@H]1O [cordycepin, 3'-deoxyadenosine]
- differentiation of 3T3-L1 cells into adipose cells ([2]; cordycepin 4, 16 and 32 µM, oil red O, 518 nm, FIG. 4): inhibits the differentiation of 3T3-L1 cells into adipose cells in a dose-dependent manner
- differentiation of 3T3-L1 cells into adipocytes ([2]; in the presence of 32 µM of cordycepin, FIG. 4): almost completely suppressed
- synthesis of triacylglycerol in 3T3-L1 cells ([3]; cordycepin 4, 16 and 32 µM, FIG. 5): inhibits the synthesis of triacylglycerol in 3T3-L1 cells in a dose-dependent manner
- expression levels of C/EBPα ([4]; 32 µM, 3T3-L1 cells): inhibited
- expression levels of PPARγ ([5]; 32 µM, 3T3-L1 cells): inhibited
- expression levels of anti-leptin [6]: inhibited

Compound: Thyroid hormone
- Side effect [1, 7]: Hyperthyroidism caused
